Test [1] deals with 661W or C6 cells. Nature of the test: MTT assay: protection against calcium-ionophore A23187. In kind it is cell-based. The settings on record: for viability at 0.1 µM: 100 nM compound; for viability at 1 µM: 1 μM compound; for viability at 0.0008 µM: 800 pM compound; for viability at 0.5 µM: 500 nM compound. Here is the method:
The compound 3-(4,5-Dimethylthiazol-2-yl)-2,5-diphenyltetrazolium bromide (MTT) is a tetrazolium ion that is reduced to a blue formazan dye via several families of NAD(P)H-dependent oxidoreductases. Formation of the formazan dye from MTT or other related tetrazolium dyes are commonly used as a viability assay even though, in fact, the assay is a metabolic capacity assay.
In this assay, 661W or C6 cells were maintained in DMEM supplemented with 10% FBS. 100 μl, of 70,000 cells/mL cells were seeded into each well of 96 well plates using DMEM supplemented with 5% FBS. Cells were then allowed to grow to confluency for 48 hours. The compounds of the invention were added in 2 μL media and calcium-ionophore A23187 was then added in 1 μL for a final concentration of 1 μM and after 24 h, 20 uL of 2 μg/mL MTT were added to each well and the cells were incubated for another 4 h after which 100 μL of 1% SDS in 0.01 M aqueous HCl were added to each well and the plates were incubated overnight. Absorbance was measured at 640 and 570 nM (background correction). The 1 μM ionophore A23187 caused about 50% loss in MTT signal at 24 h. Protection was calculated as the increase in absorbance of treatment groups normalized to the vehicle control.

Test [2] concerns 661W or C6 cells. Description: XF FCCP-uncoupled oxygen consumption rate assay (IBMX treatment). The settings on record: for activity at 1 µM: 1 uM compound. In kind it is cell-based. As to the method: The XF FCCP-uncoupled oxygen consumption rate assay assesses mitochondrial capacity by measuring cellular respiration. It was shown that the maximum FCCP-uncoupled oxygen consumption rate (OCR) was a good estimate of maximal mitochondrial capacity (Beeson 2010) and that IBMX treatment of 661W or C6 cells for 24 h caused a loss in maximal uncoupled OCR (Perron 2013). Thus, cells were pretreated with the exemplified compounds for 1 h, added 600 μM IBMX and then measured the uncoupled rate after 24 h. The OCR measurements were performed using a Seahorse Bioscience XF instrument (Seahorse Bioscience, Billerica, Md.), as previously published (Perron 2013). O2 leakage through the plastic sides and bottom of the plate was accounted for using the AKOS algorithm in the XF software package. Cells were plated on 96- or 24-well custom plates designed for use in the XF and grown to confluency in DMEM+5% FBS (48 h). The medium was then replaced with DMEM+1% FBS for 24 h, along with any treatments.

The mark [3] stands for this setting: 1 μM A23187, 24 h, read-out: MTT Protection (%, concentration).
Setting [4] is: 1 h pretreatment, 600 μM IBMX, 24 h, read-out: XF FCCP OCR (% Ctrl, concentration).

`CCOC(=O)c1sc(-c2ccccc2)nc1-c1ccccc1` [Example 1, Ethyl 2,4-diphenylthiazole-5-carboxylate]: the viability at 0.1 µM in test [1] (setting [3]) worked out at 48%. Also, the activity at 1 µM in test [2] (setting [4]) was determined as 71%. As for `O=C(O)c1sc(-c2ccccc2)nc1-c1ccccc1` [Example 2, 2,4-Diphenylthiazole-5-carboxylic acid], the viability at 0.1 µM in test [1] (setting [3]) is 40%. Moreover, the activity at 1 µM in test [2] (setting [4]) came to 77%. Regarding `O=C(Nc1ccccc1)c1sc(-c2ccccc2)nc1-c1ccccc1` [Example 3, N,2,4-Triphenylthiazole-5-carboxamide], the viability at 1 µM in test [1] (setting [3]) came out at 47%. In test [2] (setting [4]), the activity at 1 µM amounted to 72%. In the case of `O=C(Nc1ccc(F)cc1)c1sc(-c2ccccc2)nc1-c1ccccc1` [Example 4, N-(4-fluorophenyl)-2,4-diphenylthiazole-5-carboxamide], the viability at 0.1 µM in test [1] (setting [3]) came to 64.1%. For the same compound, in test [2] (setting [4]), the activity at 1 µM stood at 83%. Take `CCOC(=O)c1sc(-c2ccc(OC)cc2)nc1-c1ccccc1` [Example 5, Ethyl 2-(4-methoxyphenyl)-4-phenylthiazole-5-carboxylate]: the viability at 0.1 µM in test [1] (setting [3]) came to 69%. Besides, in test [2] (setting [4]), the activity at 1 µM was found to be 82%. With `COCCN(C)C(=O)c1sc(-c2ccccc2)nc1-c1ccccc1` [Example 6, N-(2-methoxyethyl)-N-methyl-2,4-diphenylthiazole-5-carboxamide], the viability at 0.1 µM in test [1] (setting [3]) is 78.4%. In addition, the activity at 1 µM in test [2] (setting [4]) amounted to 81%.

In the case of `CCOC(=O)c1sc(-c2ccccn2)nc1-c1ccccc1` [Example 7, Ethyl 4-phenyl-2-(pyridin-2-yl)thiazole-5-carboxylate], the viability at 1 µM in test [1] (setting [3]) was found to be 88%. Besides, in test [2] (setting [4]), the activity at 1 µM amounted to 75%. Regarding `COc1ccc(NC(=O)c2sc(-c3ccccc3)nc2-c2ccccc2)cc1` [Example 8, N-(4-methoxyphenyl)-2,4-diphenylthiazole-5-carboxamide], the viability at 0.0008 µM in test [1] (setting [3]) was 67.3%. The activity at 1 µM in test [2] (setting [4]) amounted to 73%.

Regarding `CCOC(=O)c1sc(-c2ccccc2)nc1-c1ccccn1` [Example 9, Ethyl 2-phenyl-4-(pyridin-2-yl)thiazole-5-carboxylate], the viability at 10 µM in test [1] (10 μM compound, 1 μM A23187, 24 h, read-out: MTT Protection (%, concentration)) worked out at 98%. The activity at 10 µM in test [2] (10 uM compound, 1 h pretreatment, 600 μM IBMX, 24 h, read-out: XF FCCP OCR (% Ctrl, concentration)) was 71%.

For the compound `CCOC(=O)c1sc(-c2ccncc2)nc1-c1ccccc1` [Example 10, Ethyl 4-phenyl-2-(pyridin-4-yl)thiazole-5-carboxylate], the viability at 0.5 µM in test [1] (setting [3]) was determined as 88%. Also, in test [2] (setting [4]), the activity at 1 µM came to 70%. The like results for `O=C(O)c1sc(-c2ccccn2)nc1-c1ccccc1` [Example 11, 4-Phenyl-2-(pyridin-2-yl)thiazole-5-carboxylic acid] were, in that order, 71.7% and 76%. As for `O=C(Nc1ccccc1Nc1ccccc1)c1sc(-c2ccccn2)nc1-c1ccccc1` [Example 12, 4-Phenyl-N-(2-(phenylamino)phenyl)-2-(pyridin-2-yl)thiazole-5-carboxamide], the viability at 0.0008 µM in test [1] (setting [3]) turned out to be 57.2%. Also, the activity at 1 µM in test [2] (setting [4]) came out at 71%. `CNc1ccc2oc(C[C@H]3O[C@@]4(CC[C@H]3C)O[C@H]([C@H](C)C(=O)c3ccc[nH]3)[C@H](C)C[C@H]4C)nc2c1C(=O)O` [Example A23187, reference compound]: in test [1] (1 μM ionophore A23187 alone, at 24 h), the “loss in MTT signal” value is on record as “about 50%”. Regarding `CC(C)Cn1c(=O)n(C)c(=O)c2[nH]cnc21` [IBMX, reference compound], the “decrease in the uncoupled rate” value in test [2] (IBMX treatment alone (600 μM, 24 h)) was about 50%.

(Values after patent US9850218B2, “Thiazole compounds, compositions and methods for treatment of degenerative diseases and disorders” (MUSC FOUNDATION FOR RESEARCH DEVELOPMENT, priority 2013, dated 2017).)
